According to patent US20190369111A1, “MOLECULAR KINETICS EVALUATION METHOD AND SCREENING METHOD” (Tokyo University of Science Foundation, priority 2016, published 2019):

Biological target: T1, endogenous wild-type K-Ras protein (Homo sapiens, UniProt P01116)
T1 construct: an endogenous wild-type K-Ras protein and wild-type H-Ras protein in HeLa cells; endogenous in cells; host or cells: HeLa cells
Test: Degradation of endogenous wild-type K-Ras protein in HeLa cells, Western blot analysis
Format: cell-based
Settings: 48 hours after addition
Method: HeLa cells were seeded in a 24-well plate at a cell density of 8×10^4 cells/well, and then cultured under conditions of 37° C. and 5 vol % CO2 for 16 hours.
After 16 hours from cell seeding, TUS-007 was added to HeLa cells as follows. As a medium, a serum-free medium (37° C.) in which 1 mass % L-glutamine solution (Sigma-Aldrich) was added to D-MEM (high D-glucose, phenol red, sodium pyruvate (Wako Pure Chemical Industries, Ltd.)) was used. It is noted that the L-glutamine solution was added immediately before use. A DMSO solution containing TUS-007 was mixed with the medium so that the concentration of DMSO was 1 vol %, and added to each well at 500 μL/well, and cultured under conditions of 37° C. and 5 vol % CO2. As a control, DMSO was used.
The medium was removed 48 hours after addition of TUS-007, and then PBS was added to wash the cells. […]
After electrophoresis, proteins were transferred to a PVDF membrane (Immobion™-P, Millipore) under conditions of 100 V and 2 hours using a tank-type blotting device and a transfer buffer (25 mM Tris-HCl, 195 mM glycine, 0.01% SDS, 15% methanol). […] Subsequently, the membrane was treated with a chemiluminescence reagent Immobilon™ Western (Millipore), and then chemiluminescence was detected using a lumino image analyzer LAS-3000 (FUJIFILM Corporation). […]

T1 sequence (P01116 1-188 isoform P01116-2): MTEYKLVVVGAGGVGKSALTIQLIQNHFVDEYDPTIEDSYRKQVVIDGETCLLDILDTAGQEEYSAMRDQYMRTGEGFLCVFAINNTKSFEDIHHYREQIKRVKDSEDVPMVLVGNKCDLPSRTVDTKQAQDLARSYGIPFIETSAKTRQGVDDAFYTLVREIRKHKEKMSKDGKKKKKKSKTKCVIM

SMILES: CC[C@@H](C)[C@H](NC(=O)CCCCCCNC(=O)[C@H](CC(C)C)NC(=O)CNC(=O)c1cc(Cl)ccc1Cl)C(=O)Nc1ccc2[nH]c(Cc3c[nH]c4ccccc34)nc2c1 [TUS-007]
- amount of endogenous wild-type K-Ras protein: reduced
